Test results taken from patent US20110171321A1, “ELASTOMERIC ARTICLE HAVING A BROAD SPECTRUM ANTIMICROBIAL AGENT AND METHOD OF MAKING” (priority 2008, published 2011).

Test system: E. coli, E. faecalis, K. pneumoniae, P. aeruginosa, C. albicans, S. aureus, and S. epidermidis
Assay: zone of inhibition (ZOI), control articles in each plate
Type: cell-based
Conditions: 10 μg disk, values not shown
Description: Samples were submitted in duplicate for each sterilization process. […] The diameter of each zone is reported in millimeters. […] The control results are not shown.

In the case of gentamicin, the “inhibition by positive control” value is reported as “expected inhibition”.
